The source of these data is ChEMBL document CHEMBL1862790, “Optimisation of fenarimol series for the treatment of Chagas disease”.

Bounds are passed on as bounds.

Data set [1] can be described thus: (§1) DNDI: Cytotoxicity against L-6 rat myoblasts from skeletal muscle cells.
In data set [2] the test system is Trypanosoma cruzi. As to the kind of experiment: microbe, parasite or virus in culture. Type of data set: functional, Tulahuen LacZ, Clone C4. The settings on record: Trypanosoma cruzi, Tulahuen LacZ, Clone C4.
Data set [3] has as its system Trypanosoma cruzi. As to the kind of experiment: microbe, parasite or virus in culture. The settings on record: Trypanosoma cruzi, Tulahuen LacZ, Clone C4. The class given is functional, organism-based, Tulahuen LacZ, Clone C4.
The next data set concerns L6. The description is as §1. The settings on record: L6 rat skeletal muscle myoblast cells.
[4] abbreviates: L6 rat skeletal muscle myoblast cells, IC50.
[5] abbreviates: L6 rat skeletal muscle myoblast cells.

The term IC50 denotes the point on the concentration scale where inhibition reaches its midpoint. A lower IC50 goes with greater potency. In general, IC90 refers to the point of the concentration-response curve where the effect stands at 90%. Low readings indicate an effect from little substance, high ones a need for much substance. With `CC(C)(C)c1cc(N2CCC(NC(c3ccc(Cl)cc3)c3cccnc3)CC2)[nH]n1` (centres undefined), the IC50 turned out to be 50.2 µM in data set [1] (setting [4]) and 0.019 µM in the data set on Trypanosoma cruzi [3]. Further, it took 0.047 µM to reach the 90% level in the data set with Trypanosoma cruzi [2] (IC90).
In the same order, the values of `Fc1ccc(N2CCC(NC(c3ccc(Cl)cc3)c3cccnc3)CC2)cc1C(F)(F)F` (centres undefined) are 52.3 µM, 0.024 µM and 0.063 µM.
For `CCn1cc(C(NC2CCN(c3ccc(OC(F)(F)F)cc3)CC2)c2cccnc2)cn1` (centres undefined), in that order: 73.9 µM, 0.103 µM and 0.298 µM.
As to `CSc1ccc(N2CCC(NC(c3ccc(Cl)cc3)c3cccnc3)CC2)cc1` (centres undefined), the results for the 50% inhibitory concentration (IC50) (in data set [1] (setting [4]); in the data set with Trypanosoma cruzi [3]) were 30.2 µM and 0.007 µM, respectively. For the same compound, in the data set with Trypanosoma cruzi [2], the 90% effect level (IC90) was put at 0.019 µM.
In the same order, the values of `Fc1cc(Cl)ccc1C(NC1CCN(Cc2ccc(Cl)cc2Cl)CC1)c1cccnc1` (centres undefined) are 43 µM, 0.039 µM and 0.092 µM.
In the same order, the values of `CC(C)n1cc(C(NC2CCN(c3ccc(C(F)(F)F)cc3)CC2)c2cccnc2)cn1` (centres undefined) are 77 µM, 0.029 µM and 0.081 µM.
For `CC(c1ccc(C(F)(F)F)cc1)N1CCC(NC(c2cccnc2)c2ccc(Cl)cc2F)CC1` (centres undefined), in that order: 19.5 µM, 0.075 µM and above 0.1 µM.
Regarding `Fc1cc(Cl)cc(N2CCC(NC(c3cccnc3)c3ccc(Cl)cc3F)CC2)c1` (centres undefined), the IC50 in data set [1] (setting [4]) worked out at 53.1 µM; with Trypanosoma cruzi [3], 0.019 µM. In the data set with Trypanosoma cruzi [2], the IC90 was 0.05 µM.
On to `Clc1ccc(C(NC2CCN(c3ccc(Cl)cn3)CC2)c2cccnc2)cc1` (centres undefined), for which the IC50 in data set [1] (setting [4]) was found to be 66.8 µM; with Trypanosoma cruzi [3] it was 0.035 µM. In addition, it took 0.076 µM to reach the 90% level in the data set with Trypanosoma cruzi [2] (IC90).
For the compound `CCn1cc(C(NC2CCN(c3ccc(S(C)(=O)=O)cc3)CC2)c2cccnc2)cn1` (centres undefined), the values for the 50% inhibitory concentration (IC50) (in data set [1] (setting [4]); with Trypanosoma cruzi [3]) were above 100 µM and 6.04 µM, respectively. Further, in the data set with Trypanosoma cruzi [2], the IC90 is above 10 µM.
For `OC(c1ccc(Cl)cc1)(c1cccnc1)c1ccccc1C(F)(F)F` (centres undefined), the half-inhibitory concentration (IC50) is 59.2 µM in the data set with L6 and 0.122 µM in the data set with Trypanosoma cruzi [3].
Regarding `CCC(C(C)O)N1CCC(NC(c2ccc(Cl)cc2)c2cccnc2)CC1` (centres undefined), the IC50 is above 100 µM in data set [1] (setting [4]) and 0.23 µM in the data set on Trypanosoma cruzi [3]. The compound further gave a concentration for an effect of 90% (IC90) in the data set on Trypanosoma cruzi [2] of 0.6 µM.
In the same order, the values of `Fc1cc(Cl)ccc1C(NC1CCN(c2nc3ccccc3s2)CC1)c1cccnc1` (centres undefined) are above 100 µM, 0.265 µM and 0.57 µM.
In the same order, the values of `CC(c1ccccc1)N1CCC(NC(c2cccnc2)c2ccc(Cl)cc2F)CC1` (centres undefined) are 19.1 µM, 0.314 µM and 0.597 µM.
For `COc1ccc(CN2CCC(NC(c3cccnc3)c3ccc(Cl)cc3F)CC2)cc1` (centres undefined), in that order: 52 µM, 0.37 µM and 4.38 µM.
Turning to `OC(c1ccc(Cl)cc1)(c1ccc(Cl)cc1)c1cncnc1`, the half-inhibitory concentration (IC50) in the data set with L6 came to 47.7 µM; in the data set with Trypanosoma cruzi [3], 0.224 µM.
For the compound `CO/C=C(/C(=O)OC)c1ccccc1Oc1cc(Oc2ccccc2C#N)ncn1` [AZOXYSTROBIN], the IC50 in data set [1] (setting [5]) was 50.3 µM; with Trypanosoma cruzi [3] it was 3.26 µM. In the data set with Trypanosoma cruzi [2], this compound came in with a concentration for an effect of 90% (IC90) of 8.68 µM.
Regarding `CC1=C(C(=O)Nc2ccccc2)SCCO1` [CARBOXIN], the IC50 was above 100 µM in data set [1] (setting [5]) and 22.4 µM with Trypanosoma cruzi [3]. In addition, the 90% effect concentration (IC90) with Trypanosoma cruzi [2] worked out at 57.5 µM.
In the same order, the values of `COc1nc(C)nc(NC(=O)NS(=O)(=O)c2ccccc2Cl)n1` [CHLORSULFURON] are above 100 µM, 45 µM and 100 µM.
For `Cc1ccc(-c2c(Cl)nc(C#N)n2S(=O)(=O)N(C)C)cc1` [Cyazofamid], in that order: 74 µM, 47.2 µM and above 100 µM.
For `CCCCc1c(C)nc(NCC)[nH]c1=O` [ETHIRIMOL], in that order: above 100 µM, above 100 µM and 100 µM.
Consider `Cc1occc1C(=O)Nc1ccccc1` [FENFURAM], for which the IC50 in data set [1] (setting [5]) is above 100 µM; in the data set on Trypanosoma cruzi [3], 75 µM. In the data set on Trypanosoma cruzi [2], this compound displayed a 90% effect concentration (IC90) above 100 µM.
In the case of `CC(C)NC(=O)N1CC(=O)N(c2cc(Cl)cc(Cl)c2)C1=O` [IPRODIONE], the 50% inhibitory concentration (IC50) was above 100 µM in data set [1] (setting [5]) and 49 µM in the data set with Trypanosoma cruzi [3]. The compound further returned a concentration for an effect of 90% (IC90) in the data set with Trypanosoma cruzi [2] above 100 µM.
Take `CC1CS(=O)(=O)CCN1/N=C/c1ccc([N+](=O)[O-])o1` (centres undefined) [NIFURTIMOX]: the 50% inhibitory concentration (IC50) in data set [1] (l6, IC50) was above 100 µM; in the data set with Trypanosoma cruzi [3] it was 0.23 µM. Also, the 90% effect concentration (IC90) in the data set on Trypanosoma cruzi [2] was 0.82 µM.
With `OC(c1ccc(F)cc1)(c1cncnc1)c1ccccc1Cl` (centres undefined) [NUARIMOL], the IC50 in data set [1] (setting [5]) is above 100 µM; in the data set with Trypanosoma cruzi [3], 1.14 µM. In the data set on Trypanosoma cruzi [2], this compound showed a 90% effect concentration (IC90) of 19.5 µM.
Take `CC1=C(C(=O)Nc2ccccc2)S(=O)(=O)CCO1` [OXYCARBOXIN]: the half-maximal inhibitory concentration (IC50) in data set [1] (setting [5]) was above 100 µM; in the data set with Trypanosoma cruzi [3], 65.1 µM. This compound also registered a 90% effect concentration (IC90) in the data set with Trypanosoma cruzi [2] above 100 µM.
`COC(=O)N(OC)c1ccccc1COc1ccn(-c2ccc(Cl)cc2)n1` [PYRACLOSTROBIN]: the IC50 in data set [1] (setting [5]) came out at 43.4 µM; in the data set with Trypanosoma cruzi [3], 6.46 µM. Also, in the data set on Trypanosoma cruzi [2], the 90% effect concentration (IC90) is above 10 µM.
